Source: the NIST ThermoML archive (doi:10.1021/acs.jced.8b00438)
± gives the expanded uncertainty stated by the source.

Key:
[1] = 100 kPa, Liquid; for viscosity: Falling or rolling sphere viscometry; for mass density: Vibrating tube method
[2] = xn = mol fraction of the nth substance listed; conditions: 100 kPa, Liquid, x1 = 1; for viscosity: Falling or rolling sphere viscometry; for mass density: Vibrating tube method

C1CCC(C2CCCCC2)CC1 [1,1'-bicyclohexyl]
[1]
Conditions | mass density [kg/m3] | viscosity [mPa·s]
293.15 K | 886.05 ± 0.89 | 4.003 ± 0.085
298.15 K | 882.44 ± 0.89 | 3.53 ± 0.075
303.15 K | 878.84 ± 0.88 | 3.137 ± 0.067
308.15 K | 875.25 ± 0.88 | 2.81 ± 0.06
313.15 K | 871.66 ± 0.88 | 2.532 ± 0.054
318.15 K | 868.08 ± 0.87 | 2.296 ± 0.049
323.15 K | 864.5 ± 0.87 | 2.092 ± 0.045
328.15 K | 860.93 ± 0.87 | 1.915 ± 0.041
333.15 K | 857.35 ± 0.86 | 1.762 ± 0.038

CCCCCCCCCCCC [dodecane]
[1]
Conditions | mass density [kg/m3] | viscosity [mPa·s]
293.15 K | 748.83 ± 0.76 | 1.491 ± 0.032
298.15 K | 745.22 ± 0.76 | 1.366 ± 0.029
303.15 K | 741.59 ± 0.75 | 1.257 ± 0.027
308.15 K | 737.95 ± 0.75 | 1.154 ± 0.025
313.15 K | 734.31 ± 0.75 | 1.076 ± 0.023
318.15 K | 730.66 ± 0.74 | 1.003 ± 0.021
323.15 K | 727 ± 0.74 | 0.936 ± 0.02
328.15 K | 723.33 ± 0.74 | 0.877 ± 0.019
333.15 K | 719.65 ± 0.73 | 0.823 ± 0.018

CCCCCCCCCCCC [dodecane] + C1CCC(C2CCCCC2)CC1
[2]
Conditions | mass density [kg/m3] | viscosity [mPa·s]
293.15 K | 748.83 ± 0.76 | 1.491 ± 0.032
298.15 K | 745.22 ± 0.76 | 1.366 ± 0.029
303.15 K | 741.59 ± 0.75 | 1.257 ± 0.027
308.15 K | 737.95 ± 0.75 | 1.154 ± 0.025
313.15 K | 734.31 ± 0.75 | 1.076 ± 0.023
318.15 K | 730.66 ± 0.74 | 1.003 ± 0.021
323.15 K | 727 ± 0.74 | 0.936 ± 0.02
328.15 K | 723.33 ± 0.74 | 0.877 ± 0.019
333.15 K | 719.65 ± 0.73 | 0.823 ± 0.018
